In patent US11254654B2, “Heterochromatin gene repression inhibitors” (The University of North Carolina at Chapel Hill, priority 2017, dated 2022):
Where a name gives a salt, the structure may show the parent alone.

Legend:
csHP1γ = csHP1γ inhibition assay, CiA:Oct4 N118/N192 cells; assay type: cell-based, mouse; details: 5 μM, 48 hrs, + 6 nM rapamycin
Procedure: Day 0, CiA:Oct4 N118/N192 cells were grown and cultured in 96 well plate format with 10,000 cells seeded per well. Day 1, media was aspirated and replaced with fresh ES media containing 5 μM of top screen compounds and +/−6 nM rapamycin. Day 2, media was aspirated and replaced with fresh ES media containing 5 μM of top screen compounds and +/−6 nM rapamycin. Day 3, wells were aspirated and washed with PBS prior to sample preparation and analysis by flow cytometry.
After 48-hrs of 5 μM compound treatment with and without rapamycin, the % GFP (+) populations were determined by flow cytometry analysis.
Flow cytometry analysis was used to determine the % GFP (+) population. Data was converted to % inhibition for the +rapamycin samples. Experiments were performed in biological triplicate. (n≥3) (p≤0.05*, 0.01**).

G9a = biological target: T1, G9a (Homo sapiens, UniProt Q96KQ7); test: In vitro activity against G9a; assay type: biochemical; details: data not shown
T1 sequence (Q96KQ7 1-1210): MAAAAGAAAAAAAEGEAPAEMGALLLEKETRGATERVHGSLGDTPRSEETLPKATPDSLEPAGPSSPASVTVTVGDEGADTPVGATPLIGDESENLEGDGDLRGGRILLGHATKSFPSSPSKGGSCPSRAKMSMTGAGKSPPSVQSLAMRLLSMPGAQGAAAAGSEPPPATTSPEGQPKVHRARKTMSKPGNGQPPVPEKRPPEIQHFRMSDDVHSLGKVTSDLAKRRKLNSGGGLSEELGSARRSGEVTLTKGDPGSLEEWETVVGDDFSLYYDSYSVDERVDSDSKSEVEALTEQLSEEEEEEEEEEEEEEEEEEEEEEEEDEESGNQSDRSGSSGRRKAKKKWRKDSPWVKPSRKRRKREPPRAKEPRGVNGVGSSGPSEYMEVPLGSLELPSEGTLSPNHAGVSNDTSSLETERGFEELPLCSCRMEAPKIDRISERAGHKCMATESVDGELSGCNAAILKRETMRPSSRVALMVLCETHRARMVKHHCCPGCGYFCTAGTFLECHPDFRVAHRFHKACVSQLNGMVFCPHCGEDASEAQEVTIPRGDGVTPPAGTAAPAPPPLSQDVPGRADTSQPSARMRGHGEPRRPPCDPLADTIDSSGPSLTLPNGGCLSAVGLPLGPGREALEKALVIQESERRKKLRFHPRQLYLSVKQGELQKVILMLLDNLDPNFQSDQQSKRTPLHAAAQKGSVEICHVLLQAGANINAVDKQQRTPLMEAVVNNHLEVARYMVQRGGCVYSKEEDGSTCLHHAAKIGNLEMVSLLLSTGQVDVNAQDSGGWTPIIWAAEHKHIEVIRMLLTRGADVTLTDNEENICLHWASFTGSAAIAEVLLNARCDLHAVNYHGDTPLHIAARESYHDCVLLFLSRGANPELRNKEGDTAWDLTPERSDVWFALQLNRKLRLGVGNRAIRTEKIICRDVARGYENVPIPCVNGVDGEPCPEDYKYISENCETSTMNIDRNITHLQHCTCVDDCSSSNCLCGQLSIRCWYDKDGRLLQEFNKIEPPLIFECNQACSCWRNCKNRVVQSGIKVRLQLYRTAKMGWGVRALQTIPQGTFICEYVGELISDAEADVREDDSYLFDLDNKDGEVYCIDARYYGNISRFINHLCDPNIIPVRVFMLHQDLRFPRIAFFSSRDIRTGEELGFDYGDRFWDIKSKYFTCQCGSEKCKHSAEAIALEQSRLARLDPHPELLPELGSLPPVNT

TC1 ES cells = test: Whole cell histone modification levels, Western blot densitometry; assay type: cell-based; details: 48 hrs with compound, normalized over total Histone H4
Procedure: The ability to reduce global H3K9-me2 and -me3 levels with the novel HP1 inhibitors was previously examined (see FIG. 20). […] Oct4-GFP will be measured by flow cytometry, H3K9me3 enrichment by ChIP, and DNA methylation levels by bisulfite sequencing at 2, 4, and 6 days post RA addition output measurements. Expression and chromatin modifications will also be examined at other RA regulated genes such as […] using GAPDH as a control.
Referring to FIG. 20, TC1 ES cells were incubated 48 hrs with compound. Histones marks were measured by Western blot densitometry with the indicated antibody. The results were normalized over the total Histone H4 as a percentage of untreated controls.

GLP = biological target: T2, GLP (Homo sapiens, UniProt Q9H9B1); test: In vitro activity against GLP; assay type: biochemical; details: data not shown
T2 sequence (Q9H9B1 1-1298): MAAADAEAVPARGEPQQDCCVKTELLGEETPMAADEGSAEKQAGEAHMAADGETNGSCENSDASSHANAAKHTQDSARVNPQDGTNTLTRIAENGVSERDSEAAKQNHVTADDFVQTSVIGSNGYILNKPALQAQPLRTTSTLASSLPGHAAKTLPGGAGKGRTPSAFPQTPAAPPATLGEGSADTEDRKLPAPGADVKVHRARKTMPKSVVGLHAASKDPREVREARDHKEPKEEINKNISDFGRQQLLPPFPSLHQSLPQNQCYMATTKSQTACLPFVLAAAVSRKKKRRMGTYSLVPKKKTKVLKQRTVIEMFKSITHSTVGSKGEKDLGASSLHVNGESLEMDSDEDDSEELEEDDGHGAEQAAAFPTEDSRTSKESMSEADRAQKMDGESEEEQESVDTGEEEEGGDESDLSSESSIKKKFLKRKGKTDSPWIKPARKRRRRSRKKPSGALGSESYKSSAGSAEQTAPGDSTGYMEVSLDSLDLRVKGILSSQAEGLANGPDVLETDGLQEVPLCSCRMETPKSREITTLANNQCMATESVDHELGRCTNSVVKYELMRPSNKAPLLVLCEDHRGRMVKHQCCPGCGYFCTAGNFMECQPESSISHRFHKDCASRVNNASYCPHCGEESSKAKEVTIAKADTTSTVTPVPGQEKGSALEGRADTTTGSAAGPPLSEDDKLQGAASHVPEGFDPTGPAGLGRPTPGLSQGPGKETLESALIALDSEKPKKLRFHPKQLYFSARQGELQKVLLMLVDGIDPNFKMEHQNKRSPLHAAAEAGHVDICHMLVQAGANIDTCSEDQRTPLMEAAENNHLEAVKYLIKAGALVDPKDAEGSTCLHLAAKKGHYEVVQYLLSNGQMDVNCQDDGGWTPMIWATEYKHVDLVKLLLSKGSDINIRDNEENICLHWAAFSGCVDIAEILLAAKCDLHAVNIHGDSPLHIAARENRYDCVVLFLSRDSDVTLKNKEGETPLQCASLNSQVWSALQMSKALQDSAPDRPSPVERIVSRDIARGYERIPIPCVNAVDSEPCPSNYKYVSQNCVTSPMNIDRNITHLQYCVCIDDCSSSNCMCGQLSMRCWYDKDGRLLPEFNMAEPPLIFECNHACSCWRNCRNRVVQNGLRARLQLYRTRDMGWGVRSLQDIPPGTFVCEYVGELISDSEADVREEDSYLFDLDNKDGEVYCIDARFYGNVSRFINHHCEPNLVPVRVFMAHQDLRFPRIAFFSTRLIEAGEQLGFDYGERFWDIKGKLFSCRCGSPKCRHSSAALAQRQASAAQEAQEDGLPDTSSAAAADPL

With `COc1cc2nc(N3CCCC3)nc(N[C@H]3CCCNC3)c2cc1OC` [compound 1, (S)-6,7-Dimethoxy-N-(Piperidin-3-yl)-2-(Pyrrolidin-1-yl)Quinazolin-4-Amine Trifluoroacetic Acid Salt] the “Inhibition of csHP1γ-mediated repression of CiA:Oct4 locus” value (csHP1γ) was “most potent inhibitors of csHP1γ”, the “Activity against G9a in vitro” value (G9a) was “no detectable activity” and the “Bulk di- and tri-H3K9 methylation” value (TC1 ES cells) was “significantly block”. The “Activity against GLP in vitro” value (GLP) was “no detectable activity”.
